Here are results for two compounds from US20250354185A1, “BLUE PIGMENT AND BIOSYNTHESIS METHOD THEREOF” (VERTEXYN BIOWORKS CO., LTD., priority 2024, published 2025).

Assay type in all cases: physicochemical
Data set [1] in a line: Ultraviolet-visible absorption spectrum of HPLC product peaks. The settings on record: HPLC peaks of experimental group 5 (8.8 min indigoidine, 9.9 min N-acetyl-indigoidine). Here is the method: Wavelength: 600 nm. Flow rate: 1.0 mL/min. Sample solvent: DMSO. Injection volume: 10 μL. Column temperature: 35° C. Running time: 18 min.
Experimental group 5:50 mL of a fermentation broth of the strain HG-N-Idg01 cultured according to the method in Example 2 was collected and centrifuged to produce a cell pellet. The cell pellet was resuspended with 10 mL of a catalytic solution (including 1 g/L of glutaminc, 1 g/L of N-acetylglutamine, and 50 mM of a phosphate buffer), and a reaction was allowed at 25° C. and 220 rpm for 6 h. 100 μL of a sample was collected and tested by HPLC.
FIG. 2A and FIG. 2B show the wavelengths corresponding to the maximum absorption peaks of the experimental group 5.

A short description of data set [2]: Comparison of colors of solutions in water (ddH2O). The settings on record: 1 mg dissolved with 10 mL of ddH2O; visual observation. The procedure:
1 mg of an indigoidine standard was weighed and dissolved with 10 mL of ddH2O to produce a solution of indigoidine in ddH2O. 1 mg of N-acetyl-indigoidine purified in Example 4 was weighed and dissolved with 10 mL of ddH2O to produce a solution of N-acetyl-indigoidine in ddH2O. A color difference between the solution of indigoidine in ddH2O and the solution of N-acetyl-indigoidine in ddH2O was observed, and results were shown in FIG. 17A and FIG. 17B. […] It can be seen that N-acetyl-indigoidine has a more authentic color than indigoidine.

A short description of data set [3]: Comparison of colors of solutions in DMSO. Conditions: 1 mg dissolved with 10 mL of DMSO; visual observation. Here is the method: 1 mg of an indigoidine standard was weighed and dissolved with 10 mL of DMSO to produce a solution of indigoidine in DMSO. 1 mg of N-acetyl-indigoidine purified in Example 4 was weighed and dissolved with 10 mL of DMSO to produce a solution of N-acetyl-indigoidine in DMSO. A color difference between the solution of indigoidine in DMSO and the solution of N-acetyl-indigoidine in DMSO was observed, and results were shown in FIG. 16A and FIG. 16B. […] The solution of N-acetyl-indigoidine in DMSO has a more vibrant and brighter color than the solution of indigoidine in DMSO.

Take `CC(=O)NC1=C/C(=C2/C=C(N)C(=O)NC2=O)C(=O)NC1=O` [N-acetyl-indigoidine]: in data set [1], the “wavelength corresponding to the maximum absorption peak” value stood at 584 nm. In data set [2], the “color of the solution in ddH2O” value is reported as “blue”. Besides, the “color of the solution in DMSO” value in data set [3] was “bright-blue”.
Consider Indigoidine, for which the “wavelength corresponding to the maximum absorption peak” value in data set [1] was 600 nm. Besides, in data set [2], the “color of the solution in ddH2O” value is given as “purple-blue”. In addition, the “color of the solution in DMSO” value in data set [3] is on record as “blue”.
